The text below walks through data of patent US11040036B2, “Pyruvate kinase activators for use in treating blood disorders” (Agios Pharmaceuticals, Inc., priority 2017, dated 2021).

Some results are limits rather than exact numbers.

The target of experiment [1] is T1, wild type PKR (Homo sapiens, UniProt P30613). As to the kind of experiment: PKR mutant assay (AC50), wild type PKR. It counts as biochemical. The note with it: wild type PKR enzyme; read-out: PKR WT AC50. On the procedure:
(§1) Example 11. PKR Mutant Assay
(§2) PKR or PKR mutant enzyme solution was diluted into a reaction mix, which contains 1× buffer (100 mM KCl, 50 mM Tris pH 7.5, 5 mM MgCl2) as well as PEP (cont depends on enzyme), 180 μM NADH, 0.5 units LDH, 1 mM DTT, 0.03% BSA; final assay concentrations after 1.11 fold dilution are indicated.
(§3) 2 μL of test compound was added into wells first, and then 180 μL reaction mix was added.
(§4) Reactions mixture with test compound was assembled except for ADP, and plates were stored for 60 minutes at room temperature.
(§5) 20 uL ADP was added to start reaction at room temperature and reaction progress was measured as changes in absorbance at 340 nm wavelength at room temperature.
(§6) Test Compound Preparation:
(§7) Test compound stock was made at 100× concentration in 100% DMSO (10 mM)
(§8) 1 to 3 dilutions were made for 11 points (i.e. 50 μl of first concentration added to 100 μl 100% DMSO to yield 3.33 mM, 50 μl of this added to 100 μl DMSO to yield 1.11 mM, and so forth) • 1 to 100 dilution into assay (2 μl in 200 μl) yielded starting concentration of 100 μM, decreasing 3 fold for 11 points.
(§9) Assay Buffer: 100 mM KCl, 50 mM Tris 7.5, 5 mM MgCl2, 1 ruM DTT, 0.03% BSA
(§10) Reaction Mixture: PKR mutant enzyme: 40-400 ng/well; ADP: 0.2-1.65 mM; PEP: 0.1-0.5 mM; NADH:180 μM; LDH: 0.5 units (Sigma #59023); DTT: 1 mM; BSA: 0.03%.

Experiment [2] concerns the target PKR R510Q (Homo sapiens, UniProt P30613, R510Q). Description: PKR mutant assay (AC50), PKR R510Q. It counts as biochemical. As to conditions: PKR R510Q mutant enzyme; read-out: PK R510Q AC50. As to the method: as §1, §2, §3, §4, §5, §6, §7, §8, §9, §10
Experiment [3] concerns the target T1, wild type PKR. Description: Cell based ATP assay in purified red blood cells. Details: endogenous in cells; host or cells: purified red blood cells from blood of healthy volunteers. As to conditions: RBCs, overnight at 37° C., ATP levels by Cell-Titer-Glo. On the procedure:
Example 16. Red Blood Cell (RBC) Purification
Fresh blood drawn from healthy volunteers into K2EDTA tubes was collected. Whole blood was pelleted by spinning at 500 g for 10 minutes. Cut transfusion bag port off of Purecell leukocyte reduction neofilter (Fisher NCO267633) one (1) inch above filter. Attach a 10 ml syringe barrel to the remaining cut tubing attached to neofilter. The plasma layer was removed from the pellet of the whole blood and the pellet was resuspended in 2× volume of phosphate buffered saline (PBS). Transfer 9 ml re-suspended blood cell pellet to prepared 10 ml syringe that is attached to the neofilter. Allow whole blood to gravity flow through filter until all fluid runs through upper tubing into filter disc. Add plunger to the syringe, remove syringe from clamp and invert the filter, then plunge air through the syringe filter system. Using a new 5 ml syringe, remove filtered RBCs from the bag by the syringe port and transfer purified RBCs to a 5 ml snap cap tube that has been incubated on ice. Spin 5 ml snap cap tube at 500 g for 10 minutes at 15 C, aspirate supernatant and resuspend in AGAM (1×PBS, 1% glucose, 170 mg/L adenine, 5.25 g/L mannitol) at a density of 4×10^9 cells/mL.
Example 17. Cell Based ATP Assay
For cell based ATP assays, the compound as described herein was prepared in 100% DMSO as a 10 mM stock. Serial dilutions (1:4) were performed in 96-well V-bottom storage plate and then added 1:100 to 96-well V-bottom plates containing AGAM. RBCs were diluted in AGAM media to a density of 1×10^7 cells/mL before added 90 μL/well to black clear bottom assay plates (final compound concentration at 0.1% DMSO concentration). Assay plates were sealed using aluminum foil seals and incubated overnight at 37° C. in a humidified chamber. ATP levels were read out using Cell-Titer-Glo (Promega).

The target of experiment [4] is PKR K410E (Homo sapiens, UniProt P30613, K410E). As to the kind of experiment: PKR mutant assay (AC50), PKR K410E. It counts as biochemical. The note with it: PKR K410E mutant enzyme. On the procedure:
as §1, §2, §3, §4, §5, §6, §7, §8, §9, §10

T1 sequence (P30613 whole entry): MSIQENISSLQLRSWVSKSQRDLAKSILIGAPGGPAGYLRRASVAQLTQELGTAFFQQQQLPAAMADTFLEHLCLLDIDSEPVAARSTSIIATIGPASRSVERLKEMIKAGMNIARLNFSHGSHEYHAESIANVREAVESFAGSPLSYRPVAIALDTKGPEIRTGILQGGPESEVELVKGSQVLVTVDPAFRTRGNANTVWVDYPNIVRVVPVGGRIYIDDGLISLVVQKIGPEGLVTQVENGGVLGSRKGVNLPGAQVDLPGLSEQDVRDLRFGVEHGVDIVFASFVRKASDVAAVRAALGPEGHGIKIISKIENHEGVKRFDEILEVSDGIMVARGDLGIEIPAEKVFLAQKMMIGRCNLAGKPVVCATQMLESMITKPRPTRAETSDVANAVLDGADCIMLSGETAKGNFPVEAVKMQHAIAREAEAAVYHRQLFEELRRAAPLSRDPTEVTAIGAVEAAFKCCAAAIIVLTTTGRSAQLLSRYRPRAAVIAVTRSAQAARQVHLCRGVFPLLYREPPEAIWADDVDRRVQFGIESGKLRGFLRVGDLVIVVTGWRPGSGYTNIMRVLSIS
PKR K410E, sequence (P30613 whole entry K410E): as the sequence (P30613 whole entry) above, with K410E counted along it
PKR R510Q, sequence (P30613 whole entry R510Q): as the sequence (P30613 whole entry) above, with R510Q counted along it

In the case of `Cn1c2nc(Cc3cc[nH]n3)sc2c2cnn(Cc3ncsc3F)c(=O)c21`, the AC50 in experiment [1] was below 300 nM; in experiment [2], below 300 nM; in experiment [3], at most 1000 nM; in experiment [4], below 300 nM.

`Cn1c2nc(Cc3cc[nH]n3)sc2c2cnn(Cc3nc[nH]n3)c(=O)c21`: the AC50 is below 300 nM in experiment [1], below 300 nM in experiment [2], at most 1000 nM in experiment [3] and below 300 nM in experiment [4].

Turning to `Cn1ccc(Cn2ncc3c4sc(Cc5c[nH]nn5)nc4n(C)c3c2=O)n1`, the AC50 in experiment [1] was below 300 nM; in experiment [2], below 300 nM; in experiment [3] it was at most 1000 nM; in experiment [4], below 300 nM.

As for `Cn1c2nc(Cc3cscn3)sc2c2cnn(Cc3csc(N)n3)c(=O)c21`, the half-maximal activity concentration (AC50) in experiment [1] is below 300 nM; in experiment [2], below 300 nM; in experiment [3], at most 1000 nM; in experiment [4], below 300 nM.

`Cn1c2nc(C(=O)c3cc[nH]n3)sc2c2cnn(Cc3cc[nH]n3)c(=O)c21`: the concentration at half-maximal activity (AC50) in experiment [1] was 301 to 800 nM; in experiment [2] it was 301 to 800 nM; in experiment [3] it was at most 1000 nM; in experiment [4], above 800 nM.

On to `Cn1c2nc(Cc3n[nH]cc3F)sc2c2cnn(Cc3nc(N)ccc3F)c(=O)c21`, for which the half-maximal activity concentration (AC50) is below 300 nM in experiment [1], below 300 nM in experiment [2], at most 1000 nM in experiment [3] and below 300 nM in experiment [4].

Take `Cn1c2nc(Cc3cc[nH]n3)sc2c2cnn(Cc3csc(F)n3)c(=O)c21`: the concentration at half-maximal activity (AC50) is below 300 nM in experiment [1], below 300 nM in experiment [2], at most 1000 nM in experiment [3] and below 300 nM in experiment [4].

With `Cn1c2nc(Cc3n[nH]cc3F)sc2c2cnn(Cc3cscn3)c(=O)c21`, the AC50 was below 300 nM in experiment [1], below 300 nM in experiment [2], at most 1000 nM in experiment [3] and below 300 nM in experiment [4].

On to `Cn1cc(OC(F)(F)F)c(Cn2ncc3c4sc(Cc5cc[nH]n5)nc4n(C)c3c2=O)n1`, for which the AC50 was below 300 nM in experiment [1], below 300 nM in experiment [2], at most 1000 nM in experiment [3] and below 300 nM in experiment [4].

As for `Cn1c2nc(Cc3n[nH]cc3F)sc2c2cnn(Cc3n[nH]cc3Cl)c(=O)c21`, the AC50 in experiment [1] was below 300 nM; in experiment [2], below 300 nM; in experiment [3] it was at most 1000 nM; in experiment [4], below 300 nM.

For `COc1scnc1Cn1ncc2c3sc(Cc4cc[nH]n4)nc3n(C)c2c1=O`, the AC50 in experiment [1] was below 300 nM; in experiment [2] it was below 300 nM; in experiment [3], at most 1000 nM; in experiment [4], below 300 nM.

For the molecule `Cn1c2nc(Cc3ccccn3)sc2c2cnn(Cc3cscn3)c(=O)c21`, the half-maximal activity concentration (AC50) in experiment [1] is below 300 nM; in experiment [2], below 300 nM; in experiment [3], at most 1000 nM; in experiment [4], below 300 nM.

For the molecule `CNc1ccc(F)c(Cc2nc3c(s2)c2cnn(Cc4c[nH]nn4)c(=O)c2n3C)n1`, the AC50 is below 300 nM in experiment [1], below 300 nM in experiment [2], at most 1000 nM in experiment [3] and below 300 nM in experiment [4].

With `Cn1c2nc(Cc3csc(CO)n3)sc2c2cnn(Cc3cc[nH]n3)c(=O)c21`, the concentration at half-maximal activity (AC50) in experiment [1] is below 300 nM; in experiment [2], below 300 nM; in experiment [3], at most 1000 nM; in experiment [4], below 300 nM.

With `Cn1c2nc(Cc3cc[nH]n3)sc2c2cnn(Cc3ncsc3C(N)=O)c(=O)c21`, the AC50 in experiment [1] is below 300 nM; in experiment [2], below 300 nM; in experiment [3], at most 1000 nM; in experiment [4] it was below 300 nM.

Take `Cn1cc(CN)c(Cn2ncc3c4sc(Cc5cc[nH]n5)nc4n(C)c3c2=O)n1`: the AC50 in experiment [1] was above 800 nM; in experiment [2] it was below 300 nM; in experiment [3] it was above 1000 nM; in experiment [4] it was above 800 nM.

As to `Cn1c2nc(Cc3cscn3)sc2c2cnn(Cc3cc[nH]n3)c(=O)c21`, the AC50 in experiment [1] was below 300 nM; in experiment [2], below 300 nM; in experiment [3] it was at most 1000 nM; in experiment [4], below 300 nM.

On to `Cn1c2nc(Cn3ccc(N)n3)sc2c2cnn(Cc3cc[nH]n3)c(=O)c21`, for which the concentration at half-maximal activity (AC50) in experiment [1] is below 300 nM; in experiment [2], below 300 nM; in experiment [3], at most 1000 nM; in experiment [4] it was below 300 nM.

As for `Cn1c2nc(Cn3ccnc3)sc2c2cnn(Cc3cc[nH]n3)c(=O)c21`, the half-maximal activity concentration (AC50) is below 300 nM in experiment [1], 301 to 800 nM in experiment [2], at most 1000 nM in experiment [3] and below 300 nM in experiment [4].

For `CCOC(c1cscn1)c1nc2c(s1)c1cnn(Cc3c[nH]nn3)c(=O)c1n2C` (centres unmarked), the AC50 in experiment [1] is above 800 nM; in experiment [2], above 800 nM; in experiment [3] it was above 1000 nM; in experiment [4], above 800 nM.

`Cn1nncc1Cn1ncc2c3sc(Cc4cc[nH]n4)nc3n(C)c2c1=O`: the concentration at half-maximal activity (AC50) in experiment [1] is above 800 nM; in experiment [2] it was above 800 nM; in experiment [3], above 1000 nM; in experiment [4], above 800 nM.

In the case of `Cn1c2nc(Cc3cc[nH]n3)sc2c2cnn(Cc3cnc(C(N)=O)o3)c(=O)c21`, the AC50 in experiment [1] is 301 to 800 nM; in experiment [2] it was 301 to 800 nM; in experiment [3], above 1000 nM; in experiment [4], 301 to 800 nM.

Take `Cn1c2nc(Cc3cccc(N)n3)sc2c2cnn(Cc3cc[nH]n3)c(=O)c21`: the concentration at half-maximal activity (AC50) is below 300 nM in experiment [1], below 300 nM in experiment [2], at most 1000 nM in experiment [3] and below 300 nM in experiment [4].

Take `CC(=O)Nc1ccc(F)c(Cn2ncc3c4sc(Cc5cc[nH]n5)nc4n(C)c3c2=O)n1`: the AC50 is above 800 nM in experiment [1], below 300 nM in experiment [2], above 1000 nM in experiment [3] and above 800 nM in experiment [4].

Turning to `Cn1c2nc(Cc3cc[nH]n3)sc2c2cnn(Cc3cc(F)[nH]n3)c(=O)c21`, the AC50 in experiment [1] was below 300 nM; in experiment [2], below 300 nM; in experiment [3], at most 1000 nM; in experiment [4], below 300 nM.

As for `Cn1ncc(Cn2ncc3c4sc(Cc5cc[nH]n5)nc4n(C)c3c2=O)n1`, the AC50 in experiment [1] is below 300 nM; in experiment [2], below 300 nM; in experiment [3], at most 1000 nM; in experiment [4], below 300 nM.

Take `Cn1c2nc(Cc3ccccn3)sc2c2cnn(Cc3cccnc3)c(=O)c21`: the AC50 was 301 to 800 nM in experiment [1], below 300 nM in experiment [2], at most 1000 nM in experiment [3] and 301 to 800 nM in experiment [4].

On to `Cn1c2nc(Cc3nc(N)ccc3F)sc2c2cnn(Cc3cc[nH]n3)c(=O)c21`, for which the AC50 was below 300 nM in experiment [1], below 300 nM in experiment [2], at most 1000 nM in experiment [3] and below 300 nM in experiment [4].

For the molecule `Cn1ccc(Cc2nc3c(s2)c2cnn(Cc4c[nH]nn4)c(=O)c2n3C)n1`, the concentration at half-maximal activity (AC50) in experiment [1] is below 300 nM; in experiment [2] it was below 300 nM; in experiment [3], at most 1000 nM; in experiment [4] it was below 300 nM.

Consider `Cn1cc(C(=O)O)c(Cn2ncc3c4sc(Cc5cc[nH]n5)nc4n(C)c3c2=O)n1`, for which the AC50 in experiment [1] was above 800 nM; in experiment [2] it was above 800 nM; in experiment [3] it was above 1000 nM; in experiment [4] it was above 800 nM.

With `Cn1c2nc(Cc3cc[nH]n3)sc2c2cnn(Cc3ccc(F)c(Br)n3)c(=O)c21`, the concentration at half-maximal activity (AC50) was below 300 nM in experiment [1], below 300 nM in experiment [2], at most 1000 nM in experiment [3] and below 300 nM in experiment [4].

Consider `Cn1c2nc(Cc3cc[nH]n3)sc2c2cnn(Cc3ncoc3C(N)=O)c(=O)c21`, for which the AC50 is below 300 nM in experiment [1], below 300 nM in experiment [2], at most 1000 nM in experiment [3] and below 300 nM in experiment [4].

One may read the AC50 as the concentration at which the activity in the assay is half-maximal.
